The assay has as its target TmrAB (Thermus thermophilus, UniProt Q72J04+Q72J05). The settings on record: 2 mM Mg-ATP, 2 mM MgCl2, pH 7.5, 0.2% DDM, 40 °C, 8 min.

Sequence of TmrAB (Q72J05 1-600): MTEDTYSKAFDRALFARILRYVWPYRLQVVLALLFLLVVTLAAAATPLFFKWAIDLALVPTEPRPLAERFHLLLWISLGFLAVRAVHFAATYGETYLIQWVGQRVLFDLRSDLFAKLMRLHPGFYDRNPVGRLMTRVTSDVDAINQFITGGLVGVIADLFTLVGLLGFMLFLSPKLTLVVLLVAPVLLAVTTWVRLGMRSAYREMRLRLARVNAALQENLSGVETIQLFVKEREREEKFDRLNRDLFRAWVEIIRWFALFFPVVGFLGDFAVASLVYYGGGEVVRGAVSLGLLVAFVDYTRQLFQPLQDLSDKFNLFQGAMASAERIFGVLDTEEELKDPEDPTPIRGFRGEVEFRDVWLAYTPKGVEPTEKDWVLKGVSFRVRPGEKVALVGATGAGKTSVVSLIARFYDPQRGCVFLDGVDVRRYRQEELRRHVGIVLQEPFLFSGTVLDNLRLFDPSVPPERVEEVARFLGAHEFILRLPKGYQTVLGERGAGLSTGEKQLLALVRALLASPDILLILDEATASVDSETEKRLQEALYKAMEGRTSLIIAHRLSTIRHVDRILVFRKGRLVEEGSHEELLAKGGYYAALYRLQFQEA
Sequence of TmrAB (Q72J04 1-578): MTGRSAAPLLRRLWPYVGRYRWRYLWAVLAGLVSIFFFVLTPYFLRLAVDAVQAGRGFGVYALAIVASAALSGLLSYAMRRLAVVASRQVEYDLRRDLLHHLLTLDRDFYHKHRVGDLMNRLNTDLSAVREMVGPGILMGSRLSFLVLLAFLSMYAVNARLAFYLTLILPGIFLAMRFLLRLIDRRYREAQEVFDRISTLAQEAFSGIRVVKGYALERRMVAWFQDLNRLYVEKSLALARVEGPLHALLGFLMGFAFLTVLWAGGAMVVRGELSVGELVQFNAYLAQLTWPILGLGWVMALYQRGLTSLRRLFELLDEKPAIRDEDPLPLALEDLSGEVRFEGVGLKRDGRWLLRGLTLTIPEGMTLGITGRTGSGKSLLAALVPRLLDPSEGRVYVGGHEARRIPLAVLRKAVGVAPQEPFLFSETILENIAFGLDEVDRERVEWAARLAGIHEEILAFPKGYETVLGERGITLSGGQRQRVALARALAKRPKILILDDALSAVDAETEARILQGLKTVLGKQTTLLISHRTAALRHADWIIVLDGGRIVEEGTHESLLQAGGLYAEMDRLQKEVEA

In the case of `Nc1ncnc2c1ncn2[C@@H]1O[C@H](COP(=O)(O)OP(=O)(O)OP(=O)(O)O)[C@@H](O)[C@H]1O` [ATP], the ATPase activity result is recorded as “A high ATPase activity above background demonstrated TmrAB function (Figure 1c)”.

The record behind these values is PMC8157534 (ACS Nano, 2021).
